This note sets out measurements from patent US20140294729A1, “METHODS FOR IDENTIFICATION AND USE OF AGENTS TARGETING CANCER STEM CELLS” (Whitehead Institute for Biomedical Research, priority 2008, published 2014).

Holding throughout (type): cell-based, human
Assay [1] deals with HMLEshEcad cells. Briefly: High-throughput chemical screen for selective toxicity, HMLEshEcad vs HMLEshCntrl (ATP luminescence viability). As to conditions: for most compounds 10 uM, 3 days, duplicate. Here is the method:
We screened compounds for cytotoxicity against both HMLEshEcad and control HMLEshCntrl cells. Cells were seeded in 384-well plates, allowed to grow for one day, treated with compound and assayed for cell viability after three days using a luminescence assay; compounds were screened in duplicate for each cell line (FIG. 3A; See Example 3). We screened a collection of ˜16,000 compounds, including many with known bioactivity, natural extracts, modulators of histone deacetylases, and several diverse commercial libraries.
We developed conditions to use an ATP-based luminescence viability assay with 384-well plates in high throughput screening (see Example 3 for Methods). We screened a total of 16,000 compounds as part of our screen. […]
Using the measurements from the plate-normalized DMSO control wells, we constructed the distribution of luminescence intensities for each cell line in the absence of compound (FIG. 3A). […]
Information about the general automated HTS protocol is available online at broad.harvard.edu/chembio/index.html. […] For most compounds the final concentration in each well was calculated to be 10 uM.
The screen was performed in duplicate. […] The luminescent signal from each plate was detected using an automated plate reader (Perkin-Elmer Envision 1; Wellesley, Mass.). […]

For assay [2], the system named is HMLEshEcad cells. The experiment in a line: Dose-response viability of HMLEshCntrl vs HMLEshEcad cells (validation of hits, 384-well, Cell-Titer-Glo). The note with it: FIG. 4A; for selective toxicity towards HMLEshEcad cells relative to HMLEshCntrl cells: dose response on retesting. As to the method: (§1) FIG. 4A depicts dose response curves of HMLEshCntrl (A, light gray curve) and HMLEshEcad (A, dark gray curve) cells treated with the 8 compounds identified during the initial screen. 1000 cells of each line were seeded onto 384 well plates and treated with 8 different concentrations of compounds within a 2.5 log range. The cell viability after 3 day treatment was measured by Cell-Titer-Glo. […] FIG. 4B depicts dose response curves of HMLEshCntrl (curve with square data points) and HMLE-Twist (curve with triangular data points) cells treated with the same compounds as in (A). Note that selectivity of Salinomycin, Abamectin, Etoposide and Nigericin (Top, Left-to-Right) is retained even though a different method of EMT induction is used. […] 1 Day after seeding DMSO, Salinomycin (1.25 or 5 μM) or Abamectin (0.25 or 1.25 μM) was added at the indicated concentration. As the GFP vector contains a Blasticidin resistance gene, we used Blasticidin treatment as a positive control for the expansion of GFP-expressing control HMLE cells. After 3 day incubation the mix population of cells were analyzed by flow cytometry and the percentage of GFP-positive cells were determined. […] FIG. 4D depicts dose response curves of transformed HMLERshCntrl (light gray line) and HMLERshEcad (dark gray lines) cells treated with Salinomycin and Abamectin. Dotted line denotes the 50% fraction surviving.
We pursued 8 of the 32 compounds for further study and evaluated their effects across a range of doses.
For each of these compounds, we evaluated the effect on cell viability across a series of doses for sibling cell lines either induced into or not induced into EMT.
Information about the general automated HTS protocol is available online at broad.harvard.edu/chembio/index.html. The assay was initiated by plating 40 μL of medium containing 1000 cells/well into white 384-well opaque-bottom plates (Nunc, Rochester, N.Y.) using an automated plate filler (Bio-Tek μFiller; Winsooki, Vt.) and allowing the cells to adhere for 24 hours. 100 nL of compound stock solutions in dmso was transferred from stock plates into the 384-well assay plates using an automated pin-based compound transfer robot (CyBio CyBi-Well vario; Woburn, Mass.). For most compounds the final concentration in each well was calculated to be 10 uM.
The screen was performed in duplicate. For negative controls, entire dmso-treated control plates were employed, in addition to dmso-only control wells that were incorporated into each compound assay plate. The cells were assayed for luciferase activity with the addition 20 ul of CellTiter-Glo Luminescent Cell Viability Assay solution (Promega). The luminescent signal from each plate was detected using an automated plate reader (Perkin-Elmer Envision 1; Wellesley, Mass.).
(§2) Individual compounds were purchased from Sigma and dissolved in DMSO with the exception of nigericin which was dissolved in 100% ethanol. Activity of the compounds were quantified by generating dose-response curves for HMLE-shCntrl, HMLE-shEcad and HMLE-Twist under the same cell density and culture conditions described for the initial screen, using the 384-well plate based system.

The next assay deals with HMLE-Twist cells. The experiment in a line: Dose-response viability of HMLEshCntrl vs HMLE-Twist cells. The note with it: EMT induced by Twist, FIG. 4B. As to the method: as §1, §2

Entries after “also recorded” stand apart in the source; their conditions may differ.

As to `COc1cc([C@@H]2c3cc4c(cc3[C@@H](O[C@@H]3O[C@@H]5CO[C@@H](C)O[C@H]5[C@H](O)[C@H]3O)[C@H]3COC(=O)[C@H]23)OCO4)cc(OC)c1O` [etoposide], the “specific toxicity towards HMLEshEcad (siEcad) line in the primary screen” value in the assay with HMLEshEcad cells [1] is “did score positively”. Further, the “IC50 fold lower for HMLEshEcad cells vs HMLEshCntrl cells” value with HMLEshEcad cells [2] (3 day treatment, 8 concentrations) is reported as approximately 10 fold. Further, the “selective toxicity towards HMLEshEcad cells relative to HMLEshCntrl cells” value in the assay on HMLEshEcad cells [2] was “moderate to strong selectivity; also recorded: strong specificity”; in the assay on HMLEshEcad cells [2] (listed as Etoposide), “selective toxicity”. Also, the “selectivity for HMLE-Twist cells vs HMLEshCntrl; dose-response curves compared with HMLEshEcad” value with HMLE-Twist cells is given as “is retained”.

Regarding `CN(Cc1cnc2nc(N)nc(N)c2n1)c1ccc(C(=O)N[C@@H](CCC(=O)O)C(=O)O)cc1` [methotrexate], the “specific toxicity towards HMLEshEcad (siEcad) line in the primary screen” value with HMLEshEcad cells [1] is “did score positively”.
